Laboratory results: patent US10842779B2, “Heterocyclic compounds and their use in preventing or treating bacterial infections” (priority 2015, dated 2020)
Where two headings read alike, the source gives them in different places.

What was measured:
[1] = biological target: T1, TEM-1 (Escherichia coli, UniProt P62593); assay: β-Lactamase inhibitory activity, nitrocefin hydrolysis; type: biochemical; details: class (A); 30 min pre-incubation
T1 construct: made in house; host or cells: E. coli

[2] = biological target: AmpC (P99) (Enterobacter cloacae, UniProt P05364); assay: biochemical
Protocol: (§1) Method 1: β-Lactamase Inhibitory Activity, Determination of IC50 (Table 1)
(§2) Enzyme activity was monitored by spectrophotometric measurement of nitrocefin (NCF-TOKU-E, N005) hydrolysis at 485 nm, at room temperature and in assay buffer A: 100 mM Phosphate pH7, 2% glycerol and 0.1 mg/mL Bovine serum albumin (Sigma, B4287). Enzymes were cloned in E. coli expression vector, expressed and purified in house using classical procedures. To a transparent polystyrene plate (Corning, 3628) were added in each well 5 μL DMSO or inhibitor dilutions in DMSO and 80 μL enzyme in buffer A. Plates were immediately read at 485 nm in a microplate spectrophotometer (BioTek, PowerWave HT) to enable background subtraction. After 30 min of pre-incubation at room temperature, 15 μL of NCF (200 μM final) were finally added in each well. Final enzyme concentrations were 0.1 nM (TEM-1), 0.075 nM (SHV-1), 0.4 nM (CTX-M-15), 1 nM (KPC-2), 0.2 nM (P99 AmpC), 0.2 nM (CMY-37), 0.4 nM (AmpC P. aeruginosa), 0.2 nM (OXA-1), 1.2 nM (OXA-11), 0.4 nM (OXA-15) and 0.3 nM (OXA-48). After 20 min incubation at room temperature, plates were once again read at 485 nm. Enzyme activity was obtained by subtracting the final signal by the background, and was converted to enzyme inhibition using non inhibited wells. IC50 curves were fitted to a classical Langmuir equilibrium model with Hill slope using XLFIT (IDBS).

[3] = biological target: AmpC (PAE) (Pseudomonas aeruginosa, UniProt P24735); assay: biochemical
Protocol: as §1, §2

[4] = biological target: CMY-37 (Citrobacter freundii); assay: β-Lactamase inhibitory activity, nitrocefin hydrolysis; type: biochemical
[5] = biological target: T2, OXA-1 (Escherichia coli, UniProt P13661); assay: as above; type: biochemical; details: class (D); 30 min pre-incubation
T2 construct: made in house; host or cells: E. coli

[6] = biological target: T3, OXA-11 (Pseudomonas aeruginosa, UniProt Q06778); assay: as above; type: biochemical
T3 construct: made in house; host or cells: E. coli

[7] = biological target: T4, OXA-48 (Klebsiella pneumoniae, UniProt Q6XEC0); assay: as above; type: biochemical; details: class (D); 30 min pre-incubation
T4 construct: made in house; host or cells: E. coli

[8] = test system: C. freundii; assay: Synergy with ceftazidime: MIC of ceftazidime at fixed concentration of compound; type: cell-based; details: Citrobacter freundii; CFR UFR10; beta-lactamases OXA-48; read-out: MIC of CAZ + compound (4 μg/mL)
Protocol: (§3) Method 2: MIC of Compounds and Synergy with Ceftazidime Against Bacterial Isolates (Table 2 and 3)
(§4) Compounds of the present invention were assessed against genotyped bacterial strains alone or in combination with the β-lactam ceftazidime. In the assays, MICs of said compounds, or of ceftazidime at fixed concentrations of said compounds were determined by the broth microdilution method according to the Clinical Laboratory Standards Institute (CLSI—M7-A7). Briefly, compounds alone according to the invention were prepared in DMSO and spotted (2 μL each) on sterile polystyrene plates (Corning, 3788). Compounds and ceftazidime dilutions were prepared in DMSO and spotted (1 μL each) on sterile polystyrene plates (Corning, 3788). Log phase bacterial suspensions were adjusted to a final density of 5×10^5 cfu/mL in cation-adjusted Mueller-Hinton broth (Beckton-Dickinson) and added to each well (98 μL). Microplates were incubated for 16-20 h at 35° C. in ambient air. The MIC of the compounds was defined as the lowest concentration of said compounds that prevented bacterial growth as read by visual inspection. The MIC of ceftazidime at each compound concentration was defined as the lowest concentration of ceftazidime that prevented bacterial growth as read by visual inspection.

[9] = test system: C. murliniae; assay: as above; type: cell-based; details: CMU 210102; beta-lactamases VIM-4; read-out: MIC of CAZ + compound (4 μg/mL)
Protocol: as §3, §4

[10] = test system: E. aerogenes; assay: as above; type: cell-based; details: Klebsiella aerogenes; EAE 200261; beta-lactamases TEM-x AmpC; read-out: MIC of CAZ + compound (4 μg/mL)
Protocol: as §3, §4

[11] = test system: E. cloacae; assay: as above; type: cell-based; details: Enterobacter cloacae
Protocol: as §3, §4

[12] = test system: K. oxytoca; assay: as above; type: cell-based; details: Klebsiella oxytoca, read-out: MIC of CAZ + compound (4 μg/mL)
Protocol: as §3, §4

[13] = test system: K. pneumoniae; assay: as above; type: cell-based; details: Klebsiella pneumoniae
Protocol: as §3, §4

[14] = test system: M. morganii; assay: as above; type: cell-based; details: Morganella morganii, read-out: MIC of CAZ + compound (4 μg/mL)
Protocol: as §3, §4

[15] = test system: P. aeruginosa; assay: as above; type: cell-based; details: Pseudomonas aeruginosa, read-out: MIC of CAZ + compound (4 μg/mL)
Protocol: as §3, §4

[16] = test system: P. mirabilis; assay: as above; type: cell-based; details: Proteus mirabilis; PMI UFR82; beta-lactamases CMY-2; read-out: MIC of CAZ + compound (4 μg/mL)
Protocol: as §3, §4

[17] = test system: S. marcescens; assay: as above; type: cell-based; details: Serratia marcescens; SMA UFR30; beta-lactamases OXA-405; read-out: MIC of CAZ + compound (4 μg/mL)
Protocol: as §3, §4

## O=C(O)C(F)(F)F.O=C1N2C[C@H](c3scnc3[C@H]2c2ncc[nH]2)N1OS(=O)(=O)[O-].[Na+] (relative stereo) [Example 1, Sodium and 2,2,2-trifluoroacetate [trans-7-(1H-imidazol-3-ium-2-yl)-9-oxo-3-thia-5,8,10-triaza-tricyclo[6.2.1.0^2,6]undeca-2(6),4-dien-10-yl]sulfate]
[1]
  IC50: 12 nM
[2]
  IC50: 0.37 nM
[3]
  IC50: 17 nM
[4]
  IC50: 0.63 nM
[5]
  IC50: 190 nM
[6]
  IC50: 410 nM
[7]
  IC50: 8.4 nM
[8]
  MIC: < 0.25 µg/mL
[9]
  MIC: < 0.25 µg/mL
[10]
  MIC: < 0.25 µg/mL
[11]; ECL 2185D, beta-lactamases OXA-163, read-out: MIC of CAZ + compound (4 μg/mL)
  MIC: 1 µg/mL
[11]; ECL 190310, beta-lactamases AmpC, read-out: MIC of CAZ + compound (4 μg/mL)
  MIC: < 0.25 µg/mL
[11]; ECL 200138, beta-lactamases AmpC, read-out: MIC of CAZ + compound (4 μg/mL)
  MIC: 8 µg/mL
[11]; ECL 260033, beta-lactamases AmpC, read-out: MIC of CAZ + compound (4 μg/mL)
  MIC: 4 µg/mL
[11]; ECL 260323, beta-lactamases AmpC, read-out: MIC of CAZ + compound (4 μg/mL)
  MIC: < 0.25 µg/mL
[11]; ECL HAN, beta-lactamases OXA-35, read-out: MIC of CAZ + compound (4 μg/mL)
  MIC: 2 µg/mL
[11]; ECL NEM146383, beta-lactamases AmpC, read-out: MIC of CAZ + compound (4 μg/mL)
  MIC: < 0.25 µg/mL
[11]; ECL P99, beta-lactamases AmpC, read-out: MIC of CAZ + compound (4 μg/mL)
  MIC: < 0.25 µg/mL
[11]; ECL UFR12, beta-lactamases CTX-M-9 OXA-48, read-out: MIC of CAZ + compound (4 μg/mL)
  MIC: < 0.25 µg/mL
[11]; ECL UFR38, beta-lactamases CTX-M-15 NDM-1, read-out: MIC of CAZ + compound (4 μg/mL)
  MIC: < 0.25 µg/mL
[11]; ECL UFR51, beta-lactamases SHV-12 IMP-8, read-out: MIC of CAZ + compound (4 μg/mL)
  MIC: < 0.25 µg/mL
[11]; read-out: MIC of CAZ + compound (4 μg/mL), ECL UFR84, beta-lactamases TEM-1 AmpC OXA-1
  MIC: ≤ 0.25 µg/mL
[12]
  MIC: < 0.25 µg/mL
[13]; BAA1898, read-out: MIC of CAZ + compound (4 μg/mL), KPN BAA-1898, beta-lactamases TEM-1, SHV-11, SHV-12 KPC-2
  MIC: 0.5 µg/mL
[13]; KPN 700603, beta-lactamases SHV-18 OXA-2, read-out: MIC of CAZ + compound (4 μg/mL)
  MIC: < 0.25 µg/mL
[13]; KPN LIB, beta-lactamases SHV-11 OXA-48, read-out: MIC of CAZ + compound (4 μg/mL)
  MIC: < 0.25 µg/mL
[13]; KPN UFR42, beta-lactamases SHV-2, CTX-M-15 OXA-1 OXA-181 NDM-1, read-out: MIC of CAZ + compound (4 μg/mL)
  MIC: < 0.25 µg/mL
[13]; KPN UFR43, beta-lactamases SHV-11, CTX-M-15 CMY-2 OXA-1 NDM-1, read-out: MIC of CAZ + compound (4 μg/mL)
  MIC: ≤ 0.25 µg/mL
[13]; KPN UFR77, beta-lactamases CMY-2, read-out: MIC of CAZ + compound (4 μg/mL)
  MIC: < 0.25 µg/mL
[13]; KPN UFR79, beta-lactamases DHA-1 OXA-1, read-out: MIC of CAZ + compound (4 μg/mL)
  MIC: < 0.25 µg/mL
[13]; KPN UFR80, beta-lactamases SHV-11 DHA-1 OXA-1, read-out: MIC of CAZ + compound (4 μg/mL)
  MIC: < 0.25 µg/mL
[13]; read-out: MIC of CAZ + compound (4 μg/mL), KPN 6299, beta-lactamases TEM-1, SHV-11 OXA-163
  MIC: ≤ 0.125 µg/mL
[13]; read-out: MIC of CAZ + compound (4 μg/mL), KPN 260252, beta-lactamases TEM-1, SHV-11 KPC-3
  MIC: > 128 µg/mL
[14]
  MIC: ≤ 0.25 µg/mL
[15]; PAE CIP107051, beta-lactamases TEM-24
  MIC: 8 µg/mL
[15]; PAE MUS, beta-lactamases OXA-20 OXA-18
  MIC: 8 µg/mL
[16]
  MIC: ≤ 0.25 µg/mL
[17]
  MIC: < 0.25 µg/mL
